Patent US20080014186A1, “Hla-A24 or Hla-A2 Binding Peptides of Parathyroid Hormone-Related Protein” (GREEN PEPTIDE CO., LTD., priority 2004, published 2008)

How the values were obtained:
[1] = test system: PBMCs of HLA-A24^+ healthy donors and prostate cancer patients; assay: Assay for peptide-specific CTLs in PBMCs (IFN-γ ELISA, peptide-pulsed C1R-A24 cells); format: cell-based, human; conditions: for IFN-γ production: C1R-A24 cells, HIV peptide background subtracted
Description: To investigate the immunogenicity of these four PTHrP peptides, the PBMCs of 10 HLA-A24^+ healthy donors and 10 HLA-A24^+ prostate cancer patients were stimulated with each of the four PTHrP peptides and were examined for their IFN-γ production in response to C1R-A24 cells, which were pre-pulsed with either a corresponding PTHrP peptide or the HIV peptide. Flu- and EBV-derived peptides were used as controls.
The assay for detection of peptide-specific CTLs in PBMCs was performed according to a previously reported method. In brief, PBMCs (1 X 10^5 cells/well) were incubated with […] of each peptide in a U-bottom-type 96-well microculture plate (Nunc, Roskilde, Denmark) at a volume of 200 μl of culture medium. The culture medium consisted of 45% RPMI-1640, 45% AIM-V medium (Gibco BRL), 10% FCS, 100 U/ml of IL-2, and 0.1 mM MEM nonessential amino acid solution (Gibco, BRL). Half of the culture medium was removed and replaced with new medium containing a corresponding peptide (20 μg/ml) every 3 days. On the 15th day of culture, the cultured cells were separated into 4 wells, and two wells were used for PTHrP peptide-pulsed C1R-A24 cells, and the other two wells were used for the HIV peptide-pulsed C1R-A24 cells. After an 18-hr incubation period, the supernatants were collected, and the level of IFN-γ was determined by ELISA (limit of sensitivity: 10 pg/ml).
The assay was carried out in quadruplicate, and the mean of two wells which show the highest significance compared to the control is shown in Table 1.
It was then determined whether PBMCs stimulated by either the PTHrP 36-44 or the PTHrP 102-111 peptide could induce prostate cancer-reactive CTLs from HLA-A24^+ healthy donors and prostate cancer patients. PBMCs from HLA-A24^+ healthy donors and prostate cancer patients were repeatedly stimulated with these PTHrP peptides. On day 15, half of the cultured cells were harvested, pooled from 4 wells, and cultured with C1R-A24 cells, which were pre-pulsed with the HIV peptide (open symbol) and the indicated PTHrP peptide (closed symbol) for 18-hr. The levels of IFN-γ in the supernatants were then determined by ELISA.

[2] = test system: IgG in plasma of HLA-A24^+ healthy donors and prostate cancer patients; assay: Peptide-specific IgG in plasma by ELISA (HLA-A24-binding PTHrP peptides); design: species or system human; conditions: for IgG reactive to the peptide in plasma: 1:100-diluted plasma
Description: The inventors previously reported that IgGs reactive to CTL epitope peptides were detected in healthy donors and patients with various types of cancers. IgGs reactive to prostate-related antigens were also detected in healthy donors and prostate cancer patients. It was examined, therefore, whether IgG reactive to the four PTHrP-derived peptides, PTHrP 36-44, PTHrP 102-111, PTHrP 25-34, and PTHrP 110-119, could be detected in the plasma of cancer patients and healthy donors.
Peptide-specific IgG levels in the plasma were measured by ELISA, as previously reported. In brief, peptide (20 μg/well)-immobilized plates were blocked with Block Ace (Yukijirushi, Tokyo, Japan) and washed with 0.05% Tween20-PBS, after which 100 μl/well of plasma sample diluted with 0.05% Tween20-Block Ace was added to the plate. After 2 hours incubation at 37° C., the plates were washed and further incubated for 2 hours with a 1:1000-diluted rabbit anti-human IgG (γ-chain-specific) (DAKO, Glostrup, Denmark). The plates were washed, and then 100 μl of 1:100-diluted goat anti-rabbit IgG-conjugated horseradish peroxidase (EnVision, DAKO) was added to each well, and the plates were then incubated at room temperature for 40 min. After the plates were washed once, 100 μl/well of tetramethyl benzidine substrate solution (KPL, Guildford, UK) was added, and the reaction was stopped by the addition of 1 M phosphoric acid. The values are shown as optical density (OD) units/ml, and responses to the HIV peptide were subtracted. IgG reactive to a corresponding PTHrP peptide was judged to be positive when the difference of the OD in 1:100-diluted plasma exceeded 0.05. The results that IgG reactive to either the PTHrP102-111 or the […] peptide was detected in 8 of 10 healthy donors and in 7 of 10 prostate cancers are shown in Table 2 hereinafter.
To confirm the specificity of IgG to the indicated PTHrP peptide, 100 μl of sample plasma from either HD #1 and Pt #6 was cultured in a plate pre-coated with either a corresponding PTHrP peptide or an irrelevant PTHrP peptide. Thereafter, the levels of IgG reactive to the PTHrP 102-111 peptide or the PTHrP 110-119 peptide in the resulting supernatants were determined by ELISA.

[3] = HLA-A24^+ prostate cancer patient #1
[4] = HLA-A24^+ prostate cancer patient #2
[5] = HLA-A24^+ prostate cancer patient #3
[6] = HLA-A24^+ prostate cancer patient #4
[7] = HLA-A24^+ prostate cancer patient #5
[8] = HLA-A24^+ prostate cancer patient #6
[9] = HLA-A24^+ prostate cancer patient #7
[10] = HLA-A24^+ prostate cancer patient #8
[11] = HLA-A24^+ prostate cancer patient #9
[12] = HLA-A24^+ prostate cancer patient #10
[13] = HLA-A24^+ prostate cancer patients

For KVETYKEQPL [PTHrP 110-119], the IFN-γ production ([1]; HLA-A24^+ healthy donor #1) was 394 pg/mL, the IFN-γ production ([1]; HLA-A24^+ healthy donor #2) was 17 pg/mL and the IFN-γ production ([1]; HLA-A24^+ healthy donor #3) was 20 pg/mL. It also gave an IFN-γ production ([1]; HLA-A24^+ healthy donor #4) of 2 pg/mL, an IFN-γ production ([1]; HLA-A24^+ healthy donor #5) of 38 pg/mL and an IFN-γ production ([1]; HLA-A24^+ healthy donor #6) of 357 pg/mL. For the same sequence, the IFN-γ production ([1]; HLA-A24^+ healthy donor #7) was 0 pg/mL, the IFN-γ production ([1]; HLA-A24^+ healthy donor #8) was 1017 pg/mL and the IFN-γ production ([1]; HLA-A24^+ healthy donor #9) was 61 pg/mL. The IFN-γ production ([1]; HLA-A24^+ healthy donor #10) was 0 pg/mL, the “induced peptide-specific CTLs, number of donors” value ([1]; HLA-A24^+ healthy donors) was 3 of 10 and the “Total (donors with significant peptide-specific IFN-γ production / donors tested)” value ([1]; HLA-A24^+ healthy donors, p < 0.05) was 3/10. For the same sequence, the IFN-γ production [1, 3] was 0 pg/mL, the IFN-γ production [1, 4] was 9 pg/mL and the IFN-γ production [1, 5] was 38 pg/mL. It also gave an IFN-γ production [1, 6] of 19 pg/mL, an IFN-γ production [1, 7] of 10 pg/mL and an IFN-γ production [1, 8] of 14 pg/mL. It also gave an IFN-γ production [1, 9] of 0 pg/mL, an IFN-γ production [1, 10] of 23 pg/mL and an IFN-γ production [1, 11] of 0 pg/mL. For the same sequence, the IFN-γ production [1, 12] was 118 pg/mL, the “induced peptide-specific CTLs (peptide-specific IFN-γ production), number of patients” value [1, 13] was 1 of 10 and the “Total (patients with significant peptide-specific IFN-γ production / patients tested)” value ([1]; HLA-A24^+ prostate cancer patients, p < 0.05) was 1/10. For the same sequence, the “IgG reactive to the peptide in plasma” value ([2]; HLA-A24^+ healthy donor #1) was “+ (IgG reactive to a corresponding peptide was judged to be positive when the difference of the OD in 1:100-diluted plasma exceeded 0.05.)”, the “IgG reactive to the peptide in plasma” value ([2]; HLA-A24^+ healthy donor #2) was “+ (IgG reactive to a corresponding peptide was judged to be positive when the difference of the OD in 1:100-diluted plasma exceeded 0.05.)” and the “IgG reactive to the peptide in plasma” value ([2]; HLA-A24^+ healthy donor #3) was “+ (IgG reactive to a corresponding peptide was judged to be positive when the difference of the OD in 1:100-diluted plasma exceeded 0.05.)”. For the same sequence, the “IgG reactive to the peptide in plasma” value ([2]; HLA-A24^+ healthy donor #4) was “− (IgG reactive to a corresponding peptide was judged to be positive when the difference of the OD in 1:100-diluted plasma exceeded 0.05.)”, the “IgG reactive to the peptide in plasma” value ([2]; HLA-A24^+ healthy donor #5) was “+ (IgG reactive to a corresponding peptide was judged to be positive when the difference of the OD in 1:100-diluted plasma exceeded 0.05.)” and the “IgG reactive to the peptide in plasma” value ([2]; HLA-A24^+ healthy donor #6) was “− (IgG reactive to a corresponding peptide was judged to be positive when the difference of the OD in 1:100-diluted plasma exceeded 0.05.)”. For the same sequence, the “IgG reactive to the peptide in plasma” value ([2]; HLA-A24^+ healthy donor #7) was “+ (IgG reactive to a corresponding peptide was judged to be positive when the difference of the OD in 1:100-diluted plasma exceeded 0.05.)”, the “IgG reactive to the peptide in plasma” value ([2]; HLA-A24^+ healthy donor #8) was “+ (IgG reactive to a corresponding peptide was judged to be positive when the difference of the OD in 1:100-diluted plasma exceeded 0.05.)” and the “IgG reactive to the peptide in plasma” value ([2]; HLA-A24^+ healthy donor #9) was “+ (IgG reactive to a corresponding peptide was judged to be positive when the difference of the OD in 1:100-diluted plasma exceeded 0.05.)”. The “IgG reactive to the peptide in plasma” value ([2]; HLA-A24^+ healthy donor #10) was “+ (IgG reactive to a corresponding peptide was judged to be positive when the difference of the OD in 1:100-diluted plasma exceeded 0.05.)”, the “IgG reactive to the peptide detected, number of donors” value ([2]; HLA-A24^+ healthy donors) was 8 of 10 and the “Total (IgG-positive donors / donors tested)” value ([2]; HLA-A24^+ healthy donors) was 8/10. For the same sequence, the “IgG reactive to the peptide in plasma” value [2, 3] was “+ (IgG reactive to a corresponding peptide was judged to be positive when the difference of the OD in 1:100-diluted plasma exceeded 0.05.)”, the “IgG reactive to the peptide in plasma” value [2, 4] was “+ (IgG reactive to a corresponding peptide was judged to be positive when the difference of the OD in 1:100-diluted plasma exceeded 0.05.)” and the “IgG reactive to the peptide in plasma” value [2, 5] was “− (IgG reactive to a corresponding peptide was judged to be positive when the difference of the OD in 1:100-diluted plasma exceeded 0.05.)”. The “IgG reactive to the peptide in plasma” value [2, 6] was “− (IgG reactive to a corresponding peptide was judged to be positive when the difference of the OD in 1:100-diluted plasma exceeded 0.05.)”, the “IgG reactive to the peptide in plasma” value [2, 7] was “− (IgG reactive to a corresponding peptide was judged to be positive when the difference of the OD in 1:100-diluted plasma exceeded 0.05.)” and the “IgG reactive to the peptide in plasma” value [2, 8] was “+ (IgG reactive to a corresponding peptide was judged to be positive when the difference of the OD in 1:100-diluted plasma exceeded 0.05.)”. The “IgG reactive to the peptide in plasma” value [2, 9] was “+ (IgG reactive to a corresponding peptide was judged to be positive when the difference of the OD in 1:100-diluted plasma exceeded 0.05.)”, the “IgG reactive to the peptide in plasma” value [2, 10] was “+ (IgG reactive to a corresponding peptide was judged to be positive when the difference of the OD in 1:100-diluted plasma exceeded 0.05.)” and the “IgG reactive to the peptide in plasma” value [2, 11] was “+ (IgG reactive to a corresponding peptide was judged to be positive when the difference of the OD in 1:100-diluted plasma exceeded 0.05.)”. The “IgG reactive to the peptide in plasma” value [2, 12] was “+ (IgG reactive to a corresponding peptide was judged to be positive when the difference of the OD in 1:100-diluted plasma exceeded 0.05.)”, the “IgG reactive to the peptide detected, number of patients” value [2, 13] was 7 of 10 and the “Total (IgG-positive patients / patients tested)” value [2, 13] was 7/10. The “Peptide-specific absorption of IgG (level after culturing plasma in corresponding peptide-coated wells)” value ([2]; plasma from HD #1 and Pt #6, FIG. 3B) was “significantly diminished”.
